From ChEMBL document CHEMBL6096731, “Structure-Guided Optimization and Preclinical Evaluation of 6-O-Benzylguanine-Based Pin1 Inhibitor for Hepatocellular Carcinoma Treatment” (J Med Chem, 2025)
The source made the active and inactive calls. The calls are words filed in the database; no cut-off is given here.

Legend:
[1] = Chemical stability of compound at pH 7 measured after 24 hrs by HPLC analysis; type: physicochemical; conditions: buffer, pH 7, 24 h
[2] = Toxicity in c-Myc/Alb-Cre transgenic mouse assessed as effect on ALB level at 2.5 mg/kg, po; type: organism-based; conditions: in vivo
SK-HEP1 [3] = test: Antitumor activity against human SK-HEP1 cells xenografted in female BALB/c mouse assessed as downregulation of c-myc level at 2.5 mg/kg, po measured every 4 days by immunoblotting analysis; type: functional, organism-based; conditions: time 4.0 day
SK-HEP1 [4] = test: Inhibition of cell migration in human SK-HEP1 cells at 5 uM incubated for 24 hrs by crystal violet staining based microscopic analysis; type: functional
[5] = molecular target: T1, Peptidyl-prolyl cis-trans isomerase NIMA-interacting 1 (Homo sapiens, UniProt Q13526); test: Inhibition of full length pin1 (unknown origin) expressed in Escherichia coli
T1 sequence (Q13526 whole entry): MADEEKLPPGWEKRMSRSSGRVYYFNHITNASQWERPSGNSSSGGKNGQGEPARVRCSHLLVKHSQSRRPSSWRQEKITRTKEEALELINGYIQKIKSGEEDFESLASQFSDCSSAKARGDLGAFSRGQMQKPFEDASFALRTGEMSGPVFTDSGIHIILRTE

[6] = molecular target: Peptidyl-prolyl cis-trans isomerase NIMA-interacting 1 (Mus musculus) (UniProt Q9QUR7); test: Binding affinity to mouse pin1
Sequence of Peptidyl-prolyl cis-trans isomerase NIMA-interacting 1 (Mus musculus) (Q9QUR7 whole entry): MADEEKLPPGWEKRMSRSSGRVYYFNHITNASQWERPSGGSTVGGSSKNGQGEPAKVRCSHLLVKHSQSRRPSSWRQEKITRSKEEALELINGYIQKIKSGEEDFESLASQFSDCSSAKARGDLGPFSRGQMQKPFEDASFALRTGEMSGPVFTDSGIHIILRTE

[7] = Toxicity in c-Myc/Alb-Cre transgenic mouse assessed as effect on ALP level at 2.5 mg/kg, po; type: organism-based; conditions: in vivo
[8] = molecular target: Peptidyl-prolyl cis-trans isomerase NIMA-interacting 4 (Homo sapiens) (UniProt Q9Y237); test: Inhibition of full length pin4 (unknown origin) expressed in Escherichia coli
Sequence of Peptidyl-prolyl cis-trans isomerase NIMA-interacting 4 (Homo sapiens) (Q9Y237 whole entry): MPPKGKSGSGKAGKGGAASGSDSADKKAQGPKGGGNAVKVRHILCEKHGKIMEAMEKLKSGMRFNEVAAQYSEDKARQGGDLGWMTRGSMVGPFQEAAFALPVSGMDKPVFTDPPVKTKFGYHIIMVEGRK

SK-HEP1 [9] = test: Induction of cell cycle arrest in human SK-HEP1 cells assessed as accumulation of cells at S phase by PI staining based flow cytometry analysis; type: functional
SK-HEP1 [10] = test: Antiproliferative activity human SK-HEP1 cells assessed as cell viability measured at 96 hrs; type: functional, cell-based
SK-HEP1 [11] = test: Antitumor activity against human SK-HEP1 cells xenografted in female BALB/c mouse assessed as downregulation of beta-catenin level at 2.5 mg/kg, po measured every 4 days by immunoblotting analysis; type: functional, organism-based; conditions: time 4.0 day
[12] = Toxicity in c-Myc/Alb-Cre transgenic mouse assessed as lung damage at 2.5 mg/kg, po; type: organism-based; conditions: in vivo
[13] = Toxicity in c-Myc/Alb-Cre transgenic mouse assessed as liver damage at 2.5 mg/kg, po; type: organism-based; conditions: in vivo
[14] = molecular target: T1, Peptidyl-prolyl cis-trans isomerase NIMA-interacting 1; test: Binding affinity to GST-tagged pin1 (unknown origin) assessed as dissociation constant by SPR analysis
[15] = Toxicity in female BALB/c mouse implanted with human SK-HEP1 cells assessed as effect on body weight at 2.5 mg/kg, po measured every 4 days; type: organism-based; conditions: in vivo, 96 h, time 4 day
[16] = Drug distribution in BALB/c mouse liver measured after 24 hrs by HPLC analysis; type: ADME, tissue-based; conditions: in vivo
SK-HEP1 [17] = test: Antitumor activity against human SK-HEP1 cells xenografted in c-Myc/Alb-Cre transgenic female BALB/c mouse model assessed as downregulation of c-myc level in liver at 2.5 mg/kg, po measured every 4 days by immunoblotting analysis; type: functional, organism-based; conditions: time 4.0 day
[18] = Metabolic stability in mouse microsomes measured after 120 mins; type: ADME, Liver, Microsome; conditions: 2 h
[19] = Toxicity in c-Myc/Alb-Cre transgenic mouse assessed as spleen damage at 2.5 mg/kg, po; type: organism-based; conditions: in vivo
SK-HEP1 [20] = test: Antiproliferative activity human SK-HEP1 cells assessed as cell viability measured up to 120 hrs; type: functional, cell-based
[21] = molecular target: T1, Peptidyl-prolyl cis-trans isomerase NIMA-interacting 1; test: Inhibition of pin1 in human SK-HEP1 cells at 5 uM by mass spectrometry analysis; type: cell-based
[22] = Toxicity in c-Myc/Alb-Cre transgenic mouse assessed as effect on AST level at 2.5 mg/kg, po; type: organism-based; conditions: in vivo
Homo sapiens = organism: Homo sapiens; test: Inhibition of FKBP12 (unknown origin) expressed in Escherichia coli
Hep 3B2 = test: Antiproliferative activity human Hep3B cells assessed as inhibition of cell proliferation incubated for 120 hrs; type: functional, cell-based
[23] = Toxicity in c-Myc/Alb-Cre transgenic mouse assessed as effect on TBIL level at 2.5 mg/kg, po; type: organism-based; conditions: in vivo
SK-HEP1 [24] = test: Upregulation of miR-146a expression in human SK-HEP1 cells at 5 uM incubated for 36 hrs by RT-PCR analysis; type: functional, cell-based
SK-HEP1 [25] = test: Antitumor activity against human SK-HEP1 cells xenografted in c-Myc/Alb-Cre transgenic female BALB/c mouse model assessed as downregulation of beta-catenin level in liver at 2.5 mg/kg, po measured every 4 days by immunoblotting analysis; type: functional, organism-based; conditions: time 4.0 day
SK-HEP1 [26] = test: Antitumor activity against human SK-HEP1 cells xenografted in female BALB/c mouse assessed as increase in pin1 level in brain at 2.5 mg/kg, po measured every 4 days; type: functional, organism-based; conditions: time 4.0 day
SK-HEP1 [27] = test: Antitumor activity against human SK-HEP1 cells xenografted in female BALB/c mouse assessed as increase in pin1 level in spleen at 2.5 mg/kg, po measured every 4 days; type: functional, organism-based; conditions: time 4.0 day
[28] = Drug distribution in BALB/c mouse tumor measured after 24 hrs by HPLC analysis; type: ADME, tissue-based, Neoplasm; conditions: in vivo
SK-HEP1 [29] = test: Antitumor activity against human SK-HEP1 cells xenografted in female BALB/c mouse assessed as reduction in tumor growth at 2.5 mg/kg, po measured every 4 days; type: functional, organism-based; conditions: time 4.0 day
SK-HEP1 [30] = test: Upregulation of miR-29b expression in human SK-HEP1 cells at 5 uM incubated for 36 hrs by RT-PCR analysis; type: functional, cell-based
[31] = molecular target: Voltage-gated inwardly rectifying potassium channel KCNH2 (Homo sapiens, UniProt Q12809)
Sequence of Voltage-gated inwardly rectifying potassium channel KCNH2 (Q12809 whole entry): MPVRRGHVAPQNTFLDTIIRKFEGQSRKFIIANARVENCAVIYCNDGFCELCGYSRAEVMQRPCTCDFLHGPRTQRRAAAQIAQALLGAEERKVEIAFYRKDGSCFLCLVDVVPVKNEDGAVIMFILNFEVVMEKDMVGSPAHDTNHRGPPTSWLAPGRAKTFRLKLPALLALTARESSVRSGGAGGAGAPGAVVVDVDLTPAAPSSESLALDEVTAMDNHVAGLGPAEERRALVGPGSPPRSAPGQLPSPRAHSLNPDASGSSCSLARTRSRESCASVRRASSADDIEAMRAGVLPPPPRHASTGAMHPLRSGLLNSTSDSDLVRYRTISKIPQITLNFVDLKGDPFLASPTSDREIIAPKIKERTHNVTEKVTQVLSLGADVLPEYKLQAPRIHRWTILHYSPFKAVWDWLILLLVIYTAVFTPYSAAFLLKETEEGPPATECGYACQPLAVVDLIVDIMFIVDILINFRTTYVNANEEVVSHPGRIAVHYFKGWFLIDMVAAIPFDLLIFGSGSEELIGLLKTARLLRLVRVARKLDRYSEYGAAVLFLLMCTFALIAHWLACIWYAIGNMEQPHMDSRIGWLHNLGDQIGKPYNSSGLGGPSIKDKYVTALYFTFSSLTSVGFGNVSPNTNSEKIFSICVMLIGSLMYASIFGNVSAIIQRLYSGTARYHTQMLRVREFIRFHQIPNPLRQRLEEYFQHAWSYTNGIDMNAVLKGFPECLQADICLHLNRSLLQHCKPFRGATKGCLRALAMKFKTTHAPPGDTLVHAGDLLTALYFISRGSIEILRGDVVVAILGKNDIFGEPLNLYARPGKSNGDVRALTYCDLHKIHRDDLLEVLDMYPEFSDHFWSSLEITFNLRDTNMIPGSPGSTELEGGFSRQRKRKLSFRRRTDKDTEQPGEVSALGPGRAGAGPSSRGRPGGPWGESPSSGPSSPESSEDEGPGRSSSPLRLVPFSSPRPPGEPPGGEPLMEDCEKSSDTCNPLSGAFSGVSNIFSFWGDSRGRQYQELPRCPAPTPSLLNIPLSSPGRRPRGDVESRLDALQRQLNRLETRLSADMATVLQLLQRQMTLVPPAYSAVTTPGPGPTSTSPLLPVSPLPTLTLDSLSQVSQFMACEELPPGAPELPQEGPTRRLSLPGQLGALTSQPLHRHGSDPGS

SK-HEP1 [32] = test: Antiproliferative activity human SK-HEP1 cells assessed as inhibition of cell proliferation incubated for 120 hrs; type: functional, cell-based; conditions: dose <= 2.0 µM
SK-HEP1 [33] = test: Inhibition of cell migration in human SK-HEP1 cells at 5 uM incubated for 24 hrs by wound healing assay; type: functional, cell-based
SK-HEP1 [34] = test: Antitumor activity against human SK-HEP1 cells xenografted in female BALB/c mouse assessed as increase in pin1 level in kidney at 2.5 mg/kg, po measured every 4 days; type: functional, organism-based; conditions: time 4.0 day
[35] = Chemical stability of compound by HPLC analysis; type: physicochemical
HCC = test: Induction of apoptosis in human HCC cells at 5 uM by Annexin V/FITC staining based flow cytometry analysis; type: functional, cell-based
[36] = Toxicity in c-Myc/Alb-Cre transgenic mouse assessed as heart damage at 2.5 mg/kg, po; type: organism-based; conditions: in vivo
[37] = molecular target: Peptidyl-prolyl cis-trans isomerase A (Homo sapiens) (UniProt P62937); test: Inhibition of Cyclophilin A (unknown origin) expressed in Escherichia coli
Sequence of Peptidyl-prolyl cis-trans isomerase A (Homo sapiens) (P62937 whole entry, looked up): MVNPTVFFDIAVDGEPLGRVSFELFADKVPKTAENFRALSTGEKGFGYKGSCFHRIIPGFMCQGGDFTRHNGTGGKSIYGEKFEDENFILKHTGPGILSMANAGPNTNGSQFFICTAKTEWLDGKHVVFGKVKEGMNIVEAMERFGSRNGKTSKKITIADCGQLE

[38] = Toxicity in c-Myc/Alb-Cre transgenic mouse assessed as effect on TP level at 2.5 mg/kg, po; type: organism-based; conditions: in vivo
SK-HEP1 [39] = test: Antiproliferative activity against human SK-HEP1 cells transfected with human pin1 assessed as cell viability at 5 uM incubated for 72 hrs; type: functional, cell-based
SK-HEP1 [40] = test: Antitumor activity against human SK-HEP1 cells xenografted in female BALB/c mouse assessed as increase in pin1 level in tumor at 2.5 mg/kg, po measured every 4 days; type: functional, organism-based; conditions: time 4.0 day
SK-HEP1 [41] = test: Antitumor activity against human SK-HEP1 cells xenografted in female BALB/c mouse assessed as increase in pin1 level in liver at 2.5 mg/kg, po measured every 4 days; type: functional, organism-based; conditions: time 4.0 day
SK-HEP1 [42] = test: Antitumor activity against human SK-HEP1 cells xenografted in female BALB/c mouse assessed as increase in pin1 level in heart at 2.5 mg/kg, po measured every 4 days; type: functional, organism-based; conditions: time 4.0 day
[43] = Drug localization in nucleus of human SK-HEP1 cells at 5 uM incubated for 24 hrs by Hoechst 33342 staining based fluorescence microscopic analysis; type: ADME, subcellular; conditions: sk-hep1, 24 h
[44] = molecular target: T1, Peptidyl-prolyl cis-trans isomerase NIMA-interacting 1; test: Inhibition of pin1 in human SK-HEP1 cells assessed as reduction in c-myc level at 5 uM incubated for 24 hrs by immunoblotting analysis; type: cell-based
SK-HEP1 [45] = test: Upregulation of miR-122 expression in human SK-HEP1 cells at 5 uM incubated for 36 hrs by RT-PCR analysis; type: functional, cell-based
[46] = molecular target: T1, Peptidyl-prolyl cis-trans isomerase NIMA-interacting 1; test: Binding affinity to GST-tagged pin1 (unknown origin) assessed as thermal stabilization at 1 uM at 48 to 58 degreeC by cellular thermal shift assay
[47] = Antiproliferative activity against human HCC cells assessed as cell viability incubated for 72 hrs by alamar blue dye based assay; type: toxicity; conditions: HCC cells
SK-HEP1 [48] = test: Antiproliferative activity human SK-HEP1 cells assessed as cell viability measured at 120 hrs; type: functional, cell-based
[49] = molecular target: T1, Peptidyl-prolyl cis-trans isomerase NIMA-interacting 1; test: Inhibition of pin1 in human SK-HEP1 cells assessed as reduction in beta-catenin level at 5 uM incubated for 24 hrs by immunoblotting analysis; type: cell-based
SK-HEP1 [50] = test: Upregulation of let7a expression in human SK-HEP1 cells at 5 uM incubated for 36 hrs by RT-PCR analysis; type: functional, cell-based
[51] = Toxicity in c-Myc/Alb-Cre transgenic mouse assessed as kidney damage at 2.5 mg/kg, po; type: organism-based; conditions: in vivo
[52] = Toxicity in c-Myc/Alb-Cre transgenic mouse assessed as effect on ALT level at 2.5 mg/kg, po; type: organism-based; conditions: in vivo

Stability [1]: Stable
IC50 [5]: 64.4 nM
Activity [6]: Active
inhibition [8]: inactive
Kd [14]: 154 nM
Drug uptake [16]: Active
Stability [18]: Stable
inhibition [21]: Active
inhibition (Homo sapiens): inactive
Drug uptake [28]: Active
Stability [35]: Stable
inhibition [37]: inactive
Drug uptake [43]: Active
inhibition [44]: Active
Activity [46]: Active
inhibition [49]: Active
SMILES: Nc1nc(OCc2ccc3c(c2)OCO3)c2nc[nH]c2n1
Activity [2]: Non-toxic
Activity (SK-HEP1 [3]): Active
inhibition (SK-HEP1 [4]): Active
Activity [7]: Non-toxic
Activity (SK-HEP1 [9]): Active
Activity (SK-HEP1 [10]): Active
Activity (SK-HEP1 [11]): Active
Activity [12]: Non-toxic
Activity [13]: Non-toxic
Activity [15]: Non-toxic
Activity (SK-HEP1 [17]): Active
Activity [19]: Non-toxic
Activity (SK-HEP1 [20]): Active
Activity [22]: Non-toxic
Activity (Hep 3B2): Active
Activity [23]: Non-toxic
Activity (SK-HEP1 [24]): Active
Activity (SK-HEP1 [25]): Active
Activity (SK-HEP1 [26]): Active
Activity (SK-HEP1 [27]): Active
Activity (SK-HEP1 [29]): Active
Activity (SK-HEP1 [30]): Active
IC50 [31]: > 30000 nM
Activity (SK-HEP1 [32]): Active
inhibition (SK-HEP1 [33]): Active
Activity (SK-HEP1 [34]): Active
Activity (HCC): Active
Activity [36]: Non-toxic
Activity [38]: Non-toxic
Activity (SK-HEP1 [39]): Active
Activity (SK-HEP1 [40]): Active
Activity (SK-HEP1 [41]): Active
Activity (SK-HEP1 [42]): Active
Activity (SK-HEP1 [45]): Active
IC50 at 72 h [47]: 2600 nM
Activity (SK-HEP1 [48]): Active
Activity (SK-HEP1 [50]): Active
Activity [51]: Non-toxic
Activity [52]: Non-toxic
